Data published in patent publication US7125990B2, “Imidazolyl derivatives as corticotropin releasing factor inhibitors” (Bristol-Myers Squibb COmpany, priority 2001, dated 2006).

Target: T1, CRF1 receptors (Homo sapiens, UniProt P34998)
T1 construct: endogenous in cells; host or cells: IMR-32 cells, transformed with 2.5 µM 5'-bromo-2'-deoxyuridine for 10 days; membrane preparation
T1 sequence (P34998 24-415): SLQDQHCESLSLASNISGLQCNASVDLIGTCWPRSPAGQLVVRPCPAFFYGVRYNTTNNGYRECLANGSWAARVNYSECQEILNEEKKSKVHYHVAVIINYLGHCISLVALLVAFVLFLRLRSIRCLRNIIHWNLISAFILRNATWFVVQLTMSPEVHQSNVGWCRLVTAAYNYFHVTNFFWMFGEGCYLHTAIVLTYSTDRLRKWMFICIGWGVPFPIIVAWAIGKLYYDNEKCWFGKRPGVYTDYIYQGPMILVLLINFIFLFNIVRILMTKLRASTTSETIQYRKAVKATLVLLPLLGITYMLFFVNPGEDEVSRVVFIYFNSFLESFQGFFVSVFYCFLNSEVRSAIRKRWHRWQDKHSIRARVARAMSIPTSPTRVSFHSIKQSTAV
Assay: CRF1 receptor radioligand binding assay ([125I]-oCRF competition, IMR-32 cell membranes)
Conditions: IMR-32 cell membranes, [125I]-oCRF 100 pM; read-out: Ki (CRF-1R)
Procedure: CRF1 receptor antagonists, by occupying the same receptors, blocks the accessibility of the receptors to CRF, a hypothalamic factor mediating body's responses to physiological and psychological stress. The following radioligand binding assay examines the ability of the antagonists to bind the CRF1 receptors by assessing their ability to compete with binding of CRF to the receptors in cell membrane.
Tissue culture and membrane preparation. IMR-32 cells were grown at 37° C. in 5% CO2 as a monolayer in medium consisting of MEM supplemented with 10% heat-inactivated fetal bovine serum, 0.1 mM nonessential amino acids, 1 mM sodium pyruvate and 2 mM L-glutamine. […] After transformation, cells were rinsed twice with phosphate-buffered saline, and incubated for 10–15 min. at 4° C. in homogenization buffer consisting of 50 mM Tris (pH 7.2), 10 mM MgCl2 and 2 mM EGTA. Cells were transferred from plates to polypropylene tubes (16×100 mm), homogenized and centrifuged at 32,000×g for 15 min. Pellets were resuspended by homogenization in buffer and centrifuged at 32,000×g for 15 min. Pellets were resuspended in homogenization buffer then stored at −80° C. until needed.
Radioligand binding assays. […] The assay buffer consisted of 50 mM Tris (pH 7.2), 10 mM MgCl2, 0.5% BSA, 0.005% Triton X-100, 10 μg/mL aprotinin and 10 μg/mL leupeptin. Assays were stopped by addition of ice-cold wash buffer (50 mM Tris, pH 7.4 and 0.2% BSA). Filtration over glass fiber filters (Whatman GF/B) previously soaked in 50 mM Tris, pH 7.2 and 1% BSA was carried out using a Brandel cell harvester. Filters were washed with 10 mL of ice-cold wash buffer. Non-specific binding was defined with 10 μM oCRF. IC50 values for oCRF and test compounds were calculated by nonlinear regression using a one-site binding curve (GraphPad Prism).

**Q.** `CCCN(CC1CC1)C(=O)c1c(C)nc2n1CCN2c1c(C)cc(C)cc1C` [Example 1, 2-Methyl-7-(2,4,6-trimethyl-phenyl)-6,7-dihydro-5H-imidazo[1,2-α]imidazole-3-carboxylic acid cyclopropylmethyl-propyl-amide] was tested. Which Ki did it give?
**A.** < 1000 nM

**Q.** `CCCN(CC1CC1)C(=O)c1c(CC)nc2n1CCN2c1c(C)cc(C)cc1C` [Example 2, 2-Ethyl-7-(2,4,6-trimethyl-phenyl)-6,7-dihydro-5H-imidazo[1,2-α]imidazole-3-carboxylic acid cyclopropylmethyl-propyl-amide] was tested. Which Ki did it give?
**A.** < 100 nM

**Q.** `CCc1nc2n(c1C(=O)N(CC1CC1)CC(F)(F)F)CCN2c1c(C)cc(C)cc1C` [Example 5, 2-Ethyl-7-(2,4,6-trimethyl-phenyl)-6,7-dihydro-5H-imidazo[1,2-a]imidazole-3-carboxylic acid cyclopropylmethyl-(2,2,2-trifluoro-ethyl)-amide] was tested. Which Ki did it give?
**A.** < 100 nM

**Q.** How did the Ki turn out when `CCCN(CC(F)(F)F)C(=O)c1c(CC)nc2n1CCN2c1c(C)cc(C)cc1C` [Example 6, 2-Ethyl-7-(2,4,6-trimethyl-phenyl)-6,7-dihydro-5H-imidazo[1,2-a]imidazole-3-carboxylic acid propyl-(2,2,2-trifluoro-ethyl)-amide] was run?
**A.** < 100 nM

**Q.** `CCc1nc2n(c1C(=O)N(CC1CC1)CC(F)(F)C(F)(F)F)CCN2c1c(C)cc(C)cc1C` [Example 7, 2-Ethyl-7-(2,4,6-trimethyl-phenyl)-6,7-dihydro-5H-imidazo[1,2-a]imidazole-3-carboxylic acid cyclopropylmethyl-(3,3,3,2,2-pentafluoro-propyl)-amide] was tested. Which Ki did it give?
**A.** < 100 nM

**Q.** How did the Ki turn out when `CCc1nc2n(c1C(=O)N(CC1CC1)CC1CC1)CCN2c1c(C)cc(C)cc1C` [Example 8, 2-Ethyl-7-(2,4,6-trimethyl-phenyl)-6,7-dihydro-5H-imidazo[1,2-a]imidazole-3-carboxylic acid cyclopropylmethyl-(cyclopropylmethyl)-amide] was run?
**A.** < 100 nM

**Q.** With `CCc1nc2n(c1C(=O)N(CCC(F)(F)F)CC1CC1)CCN2c1c(C)cc(C)cc1C` [Example 9, 2-Ethyl-7-(2,4,6-trimethyl-phenyl)-6,7-dihydro-5H-imidazo[1,2-a]imidazole-3-carboxylic acid cyclopropylmethyl-(3,3,3-trifluoro-propyl)-amide] as the compound, how does the Ki read?
**A.** < 100 nM

**Q.** For `CCc1nc2n(c1C(=O)N(CC)CC1CC1)CCN2c1c(C)cc(C)cc1C` [Example 10, 2-Ethyl-7-(2,4,6-trimethyl-phenyl)-6,7-dihydro-5H-imidazo[1,2-a]imidazole-3-carboxylic acid cyclopropylmethyl-(ethyl)-amide], which Ki is on record?
**A.** < 100 nM

**Q.** `CCCN(CCC)C(=O)c1c(CC)nc2n1CCN2c1c(C)cc(C)cc1C` [Example 11, 2-Ethyl-7-(2,4,6-trimethyl-phenyl)-6,7-dihydro-5H-imidazo[1,2-a]imidazole-3-carboxylic acid dipropyl-amide] was tested. Which Ki did it give?
**A.** < 1000 nM

**Q.** `CCCN(CCC(F)(F)F)C(=O)c1c(CC)nc2n1CCN2c1c(C)cc(C)cc1C` [Example 12, 2-Ethyl-7-(2,4,6-trimethyl-phenyl)-6,7-dihydro-5H-imidazo[1,2-a]imidazole-3-carboxylic acid propyl-(3,3,3-trifluoropropyl)-amide] was tested. Which Ki did it give?
**A.** < 1000 nM

**Q.** With `CCCN(CCc1ccccc1)C(=O)c1c(CC)nc2n1CCN2c1c(C)cc(C)cc1C` [Example 13, 2-Ethyl-7-(2,4,6-trimethyl-phenyl)-6,7-dihydro-5H-imidazo[1,2-a]imidazole-3-carboxylic acid phenethyl-propyl-amide] as the compound, how does the Ki read?
**A.** < 1000 nM

**Q.** With `CCc1nc2n(c1C(=O)N(CCC(F)(F)F)Cc1ccc(Cl)cc1)CCN2c1c(C)cc(C)cc1C` [Example 14, 2-Ethyl-7-(2,4,6-trimethyl-phenyl)-6,7-dihydro-5H-imidazo[1,2-a]imidazole-3-carboxylic acid (4-chloro-benzyl)-(3,3,3-trifluoro-propyl)-amide] as the compound, how does the Ki read?
**A.** < 1000 nM

**Q.** How did the Ki turn out when `CCCCN(CC)C(=O)c1c(CC)nc2n1CCN2c1c(C)cc(C)cc1C` [Example 15, 2-Ethyl-7-(2,4,6-trimethyl-phenyl)-6,7-dihydro-5H-imidazo[1,2-a]imidazole-3-carboxylic acid butyl-ethyl-amide] was run?
**A.** < 1000 nM

**Q.** For `CCc1nc2n(c1C(=O)N(CC)CCC1CC1)CCN2c1c(C)cc(C)cc1C` [Example 16, 2-Ethyl-7-(2,4,6-trimethyl-phenyl)-6,7-dihydro-5H-imidazo[1,2-a]imidazole-3-carboxylic acid (2-cyclopropyl-ethyl)-ethyl-amide], which Ki is on record?
**A.** < 1000 nM

**Q.** With `CCc1nc2n(c1C(=O)N(CCC1CC1)CCC(F)(F)F)CCN2c1c(C)cc(C)cc1C` [Example 17, 2-Ethyl-7-(2,4,6-trimethyl-phenyl)-6,7-dihydro-5H-imidazo[1,2-a]imidazole-3-carboxylic acid (2-cyclopropyl-ethyl)-(3,3,3-trifluoro-propyl)-amide] as the compound, how does the Ki read?
**A.** < 1000 nM

**Q.** With `CCc1nc2n(c1C(=O)N(CCC(F)(F)F)Cc1ccccc1)CCN2c1c(C)cc(C)cc1C` [Example 18, 2-Ethyl-7-(2,4,6-trimethyl-phenyl)-6,7-dihydro-5H-imidazo[1,2-a]imidazole-3-carboxylic acid benzyl-(3,3,3-trifluoro-propyl)-amide] as the compound, how does the Ki read?
**A.** < 1000 nM

**Q.** For `C=CCN(CCC)C(=O)c1c(CC)nc2n1CCN2c1c(C)cc(C)cc1C` [Example 19, 2-Ethyl-7-(2,4,6-trimethyl-phenyl)-6,7-dihydro-5H-imidazo[1,2-a]imidazole-3-carboxylic acid allyl-propyl-amide], which Ki is on record?
**A.** < 1000 nM

**Q.** How did the Ki turn out when `CCCN(CCC1CC1)C(=O)c1c(CC)nc2n1CCN2c1c(C)cc(C)cc1C` [Example 20, 2-Ethyl-7-(2,4,6-trimethyl-phenyl)-6,7-dihydro-5H-imidazo[1,2-a]imidazole-3-carboxylic acid (2-cyclopropyl-ethyl)-propyl-amide] was run?
**A.** < 1000 nM

**Q.** With `CCCN(Cc1ccc(Cl)cc1)C(=O)c1c(CC)nc2n1CCN2c1c(C)cc(C)cc1C` [Example 21, 2-Ethyl-7-(2,4,6-trimethyl-phenyl)-6,7-dihydro-5H-imidazo[1,2-a]imidazole-3-carboxylic acid (4-chloro-benzyl)-propyl-amide] as the compound, how does the Ki read?
**A.** < 10000 nM

**Q.** With `C=CCN(CC=C)C(=O)c1c(CC)nc2n1CCN2c1c(C)cc(C)cc1C` [Example 22, 2-Ethyl-7-(2,4,6-trimethyl-phenyl)-6,7-dihydro-5H-imidazo[1,2-a]imidazole-3-carboxylic acid diallylamide] as the compound, how does the Ki read?
**A.** < 10000 nM

**Q.** With `CCc1nc2n(c1C(=O)N(CCc1ccccc1)CCC(F)(F)F)CCN2c1c(C)cc(C)cc1C` [Example 23, 2-Ethyl-7-(2,4,6-trimethyl-phenyl)-6,7-dihydro-5H-imidazo[1,2-a]imidazole-3-carboxylic acid phenethyl-(3,3,3-trifluoro-propyl)-amide] as the compound, how does the Ki read?
**A.** < 10000 nM

**Q.** `CCc1nc2n(c1C(=O)N(CCC(F)(F)F)Cc1cccc(F)c1)CCN2c1c(C)cc(C)cc1C` [Example 24, 2-Ethyl-7-(2,4,6-trimethyl-phenyl)-6,7-dihydro-5H-imidazo[1,2-a]imidazole-3-carboxylic acid (3-fluoro-benzyl)-(3,3,3-trifluoro-propyl)-amide] was tested. Which Ki did it give?
**A.** < 10000 nM

**Q.** With `CCCN(Cc1ccccc1)C(=O)c1c(CC)nc2n1CCN2c1c(C)cc(C)cc1C` [Example 25, 2-Ethyl-7-(2,4,6-trimethyl-phenyl)-6,7-dihydro-5H-imidazo[1,2-a]imidazole-3-carboxylic acid benzyl-propyl-amide] as the compound, how does the Ki read?
**A.** < 10000 nM
